Literature values as cited in PMC4499460 (The Journal of organic chemistry, 2015).

Conditions: in 1 N H2SO4

ϕf of quantum yield reference: 0.54
Compound: C=C[C@H]1CN2CC[C@H]1C[C@H]2[C@H](O)c1ccnc2ccc(OC)cc12.O=S(=O)(O)O [quinine bisulfate]
